{"source": "paper PMC2725291", "about": "“Genetic and Molecular Basis of Individual Differences in Human Umami Taste Perception” (PLoS ONE, 2009)", "key": {"TAS1R1/TAS1R3 variants": {"test_system": "TAS1R1/TAS1R3 variants", "assay": "Ca2+ imaging (FlexStation II), comparison across receptor variants (AR, TR, AC, TC)", "assay_type": "cell-based, human", "details": "MSG alone", "excerpt": "Intronless human TAS1Rs and Gαl6 expression constructs were generated in the pEF-DEST51 Gateway vector (Invitrogen) by genomic DNA-based methods. To subclone each gene into the vector, a Kozak cassette was introduced at the 5′ end before the start codon. Gαl6 chimeras were generated by PCR with mutagenic primers. The carboxyl-terminal tail of Gαl6, five-residue (EINLL) was replaced by its counterpart from Gαi3 (ECGLY; Gα16-i3), Gαgust (DCGLF; Gα16-gust), and Gα16-gust44 was generated as described. The integrity of all DNA constructs was confirmed by DNA sequencing. Point mutations in TAS1Rs were made using the same overlapping PCR strategy with mutagenic primers.\nHEK293 cells were cultured at 37°C under a humidified atmosphere containing 5% CO2 in Dulbecco's modified Eagle's medium supplemented with 10% fetal bovine serum. To obtain reproducible Ca^2+ responses, cells were split every 2 days before cells become confluent. Cells were discarded after 2 months of passages and new cells were prepared from frozen-stock. For calcium imaging experiments, cells were seeded onto a 35 mm recording chamber or poly-D-lysine coated 96-well black-wall, clear-bottom recording plates. After 24 hrs at 37°C, confluent cells (60∼70%) were washed in OptiMEM medium supplemented with GlutaMAX-I (invitrogen) and plasmid DNAs were transiently cotransfected into HEK293 cells using Lipofectamine2000 regent (invitrogen) (2.0 µl per 1.0 µg DNA). […]\nStudent's t-test was used for detection of differences in the mean recognition thresholds between males and females. […] The mean values (the center±S.E. of gaussian curve on X-axis) in the distribution of recognition thresholds defined by TAS1R1/TAS1R3 haplotypes (TAS1R1-372A/TAS1R3-757R homozygotes, TAS1R1-372T/TAS1R3-757R homozygotes, homo- and heterozygotes containing TAS1R3-757C) were calculated using gauss fit function of Origin 5.0 (OriginLab Corp). For Ca^2+ imaging analysis, data were normalized to response to 10 µM ISO, and mean values (±S.E.) were calculated from 10∼18 independent analyses."}, "[1]": {"test_system": "Mock-transfected HEK cells", "assay": "Ca2+ imaging in mock-transfected HEK cells", "assay_type": "cell-based, human", "details": "without the three genes, Gα16-i3 alone, Gα16-i3/TAS1R1 without TAS1R3, Gα16-i3/TAS1R3 without TAS1R1", "description": "HEK293 cells were cultured at 37°C under a humidified atmosphere containing 5% CO2 in Dulbecco's modified Eagle's medium supplemented with 10% fetal bovine serum. To obtain reproducible Ca^2+ responses, cells were split every 2 days before cells become confluent. Cells were discarded after 2 months of passages and new cells were prepared from frozen-stock. For calcium imaging experiments, cells were seeded onto a 35 mm recording chamber or poly-D-lysine coated 96-well black-wall, clear-bottom recording plates. […] The transfection efficiencies were estimated by visualizing DsRed fluorescence (data not shown) or by immunocytochemistry of TAS1R3, and were typically 50∼55% (Figure S4). […]\nTwo Ca^2+ imaging systems were used. […] Taste solutions diluted in HBSS were applied sequentially to the cells for 30 s with a peristaltic pump at a flow rate of 1.5 ml/min, and fluorescence images were obtained using a S Fluor ×20/0.75 objective lens (Nikon) via a cooled-CCD camera (C6790, Hamamatsu Photonics) fitted to a TE300 microscope (Nikon). Acquisition and analysis of these fluorescence images used AquaCosmos software (v. 1.3, Hamamatsu Photonics). […] Responses were measured from 30 individual responding cells. […]"}}, "data": [{"smiles": "N[C@@H](CCC(=O)O)C(=O)[O-].[Na+]", "note": "[MSG, monosodium glutamate]", "values": [{"measurement": "more sensitive responses (EC50 comparison) of 372T/757R (TR) compared to the other variants (AR, AC and TC)", "setting": "TAS1R1/TAS1R3 variants", "result": "about 1.5 fold"}, {"measurement": "EC50", "setting": "TAS1R1/TAS1R3 variants; the other variants (AR, AC and TC)", "result": "27.6 to 32.2", "unit": "mM"}, {"measurement": "Ca2+ response of mock-transfected HEK cells", "setting": "[1]", "result": "did not respond"}]}]}
